Drawing on patent publication US10369138B2, “Monobactam organic compounds for the treatment of bacterial infections” (Novartis AG, priority 2014, dated 2019), this text covers MIC for 17 compounds.

Structures are written as SMILES. ≈ marks a conversion by molar mass, not a printed value.

One test has as its system E. coli strain 25922. Nature of the test: MIC by broth microdilution, E. coli strain 25922. In kind it is cell-based. The conditions noted are these: Escherichia coli, 25922, E. coli strain 25922; read-out: Ec 25922 (MIC). The procedure, abridged:
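CLSI broth microdilution in cation-adjusted Mueller-Hinton broth, inoculum about 5×10^5 CFU/mL, 10% DMSO from the diluted series, 20 h at 35-37° C. MIC is the lowest concentration preventing visible growth, read by eye and at 600 nm.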
In general terms: In broth dilution the organism is exposed to a series of concentrations in liquid medium.

Another test has as its system E. coli containing KPC-2. Briefly: MIC by broth microdilution, E. coli containing KPC-2 (Ec KPC2 Iso). In kind it is cell-based. The conditions noted are these: Escherichia coli, read-out: Ec KPC2 Iso (MIC), E. coli containing KPC-2 (carbapenemase from Klebsiella pneumoniae). The procedure, abridged:
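Host E. coli BW25113 pspB carrying multicopy pBAD18-kan plasmid with constitutive TEM-promoter KPC-2 expression (periplasmic signal sequence); broth microdilution per CLSI in cation-adjusted Mueller-Hinton broth, inoculum ~5×10^5 CFU/mL, compounds twofold serially diluted from DMSO masters (10% DMSO in dilution series added).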

What is called MIC is the least concentration at which growth counts as inhibited. In the case of `CC(C)(N)CCNCc1cnn(C[C@@H]2[C@H](NC(=O)/C(=N\OC3(C(=O)O)CC3)c3csc(N)n3)C(=O)N2S(=O)(=O)O)n1` [Example 131, 1-(((Z)-(2-(((2R,3S)-2-((4-(((3-amino-3-methylbutyl)amino)methyl)-2H-1,2,3-triazol-2-yl)methyl)-4-oxo-1-sulfoazetidin-3-yl)amino)-1-(2-aminothiazol-4-yl)-2-oxoethylidene)amino)oxy)cyclopropanecarboxylic acid], the values for the MIC in the test on E. coli strain 25922 and with E. coli containing KPC-2 were 1 µg/mL (≈ 1.63 µM) and 2 µg/mL (≈ 3.25 µM), respectively.
The corresponding values for `CC(C)(CCN)NCc1cnn(C[C@@H]2[C@H](NC(=O)/C(=N\OC3(C(=O)O)CC3)c3csc(N)n3)C(=O)N2S(=O)(=O)O)n1` [Example 132, 1-(((Z)-(2-(((2R,3S)-2-((4-(((4-amino-2-methylbutan-2-yl)amino)methyl)-2H-1,2,3-triazol-2-yl)methyl)-4-oxo-1-sulfoazetidin-3-yl)amino)-1-(2-aminothiazol-4-yl)-2-oxoethylidene)amino)oxy)cyclopropanecarboxylic acid] are 1 µg/mL (≈ 1.63 µM) and 1 µg/mL (≈ 1.63 µM).
The corresponding values for `NCCOC(=O)NCc1cnn(C[C@@H]2[C@H](NC(=O)/C(=N\OC3(C(=O)O)CC3)c3csc(N)n3)C(=O)N2S(=O)(=O)O)n1` [Example 133, 1-(((Z)-(2-(((2R,3S)-2-((4-((((2-aminoethoxy)carbonyl)amino)methyl)-2H-1,2,3-triazol-2-yl)methyl)-4-oxo-1-sulfoazetidin-3-yl)amino)-1-(2-aminothiazol-4-yl)-2-oxoethylidene)amino)oxy)cyclopropanecarboxylic acid] are 1 µg/mL (≈ 1.62 µM) and 0.5 µg/mL (≈ 0.811 µM).
The corresponding values for `NCC(=O)NCc1cnn(C[C@@H]2[C@H](NC(=O)/C(=N\OC3(C(=O)O)CC3)c3csc(N)n3)C(=O)N2S(=O)(=O)O)n1` [Example 134, 1-(((Z)-(2-(((2R,3S)-2-((4-((2-aminoacetamido)methyl)-2H-1,2,3-triazol-2-yl)methyl)-4-oxo-1-sulfoazetidin-3-yl)amino)-1-(2-aminothiazol-4-yl)-2-oxoethylidene)amino)oxy)cyclopropanecarboxylic acid] are 0.5 µg/mL (≈ 0.852 µM) and 0.25 µg/mL (≈ 0.426 µM).
Turning to `NCCNC(=O)NCc1cnn(C[C@@H]2[C@H](NC(=O)/C(=N\OC3(C(=O)O)CC3)c3csc(N)n3)C(=O)N2S(=O)(=O)O)n1` [Example 135, 1-(((Z)-(2-(((2R,3S)-2-((4-((3-(2-aminoethyl)ureido)methyl)-2H-1,2,3-triazol-2-yl)methyl)-4-oxo-1-sulfoazetidin-3-yl)amino)-1-(2-aminothiazol-4-yl)-2-oxoethylidene)amino)oxy)cyclopropanecarboxylic acid], the MIC in the test with E. coli strain 25922 and in the test on E. coli containing KPC-2 was 0.5 µg/mL (≈ 0.812 µM) in each case.
As for `NCCCNC(=O)NCc1cnn(C[C@@H]2[C@H](NC(=O)/C(=N\OC3(C(=O)O)CC3)c3csc(N)n3)C(=O)N2S(=O)(=O)O)n1` [Example 136, 1-(((Z)-(2-(((2R,3S)-2-((4-((3-(3-aminopropyl)ureido)methyl)-2H-1,2,3-triazol-2-yl)methyl)-4-oxo-1-sulfoazetidin-3-yl)amino)-1-(2-aminothiazol-4-yl)-2-oxoethylidene)amino)oxy)cyclopropanecarboxylic acid], the MIC in the test on E. coli strain 25922 and in the test with E. coli containing KPC-2 was 0.5 µg/mL (≈ 0.794 µM) throughout.
Regarding `C[n+]1cccc(CNCc2cnn(C[C@@H]3[C@H](NC(=O)/C(=N\OC4(C(=O)O)CC4)c4csc(N)n4)C(=O)N3S(=O)(=O)O)n2)c1` [Example 137, (2R,3S)-3-((Z)-2-(2-aminothiazol-4-yl)-2-((1-carboxycyclopropoxy)-imino)acetamido)-2-((4-((((1-methylpyridin-1-ium-3-yl)methyl)amino)methyl)-2H-1,2,3-triazol-2-yl)methyl)-4-oxoazetidine-1-sulfonate], the minimal inhibitory concentration (MIC) came out at 1 µg/mL in the test on E. coli strain 25922 and 0.5 µg/mL in the test with E. coli containing KPC-2.
As for `Nc1nc(/C(=N/OC2(C(=O)O)CC2)C(=O)N[C@@H]2C(=O)N(S(=O)(=O)O)[C@@H]2Cn2ncc(CN3CCC(N)CC3)n2)cs1` [Example 138, 1-(((Z)-(2-(((2R,3S)-2-((4-((4-aminopiperidin-1-yl)methyl)-2H-1,2,3-triazol-2-yl)methyl)-4-oxo-1-sulfoazetidin-3-yl)amino)-1-(2-aminothiazol-4-yl)-2-oxoethylidene)amino)oxy)cyclopropanecarboxylic acid], the minimum inhibitory concentration (MIC) was found to be 0.5 µg/mL (≈ 0.816 µM) in the test on E. coli strain 25922 and 1 µg/mL (≈ 1.63 µM) in the test on E. coli containing KPC-2.
On the same counts, the results for `Nc1nc(/C(=N/OC2(C(=O)O)CC2)C(=O)N[C@@H]2C(=O)N(S(=O)(=O)O)[C@@H]2Cn2ncc(CSC3Cn4cnc[n+]4C3)n2)cs1` (stereo partly drawn) [Example 139, (2R,3S)-3-((Z)-2-(2-aminothiazol-4-yl)-2-((1-carboxycyclopropoxy)imino)acetamido)-2-((4-(((6,7-dihydro-5H-pyrazolo[1,2-a][1,2,4]triazol-4-ium-6-yl)thio)methyl)-2H-1,2,3-triazol-2-yl)methyl)-4-oxoazetidine-1-sulfonate] are 1 µg/mL and 4 µg/mL.
Regarding `N=C(NCc1cnn(C[C@@H]2[C@H](NC(=O)/C(=N\OC3(C(=O)O)CC3)c3csc(N)n3)C(=O)N2S(=O)(=O)O)n1)N[C@H]1C[C@@H](N)C1` [Example 140, 1-(((Z)-(2-(((2R,3S)-2-((4-((3-((1 s,3S)-3-aminocyclobutyl)guanidino)methyl)-2H-1,2,3-triazol-2-yl)methyl)-4-oxo-1-sulfoazetidin-3-yl)amino)-1-(2-aminothiazol-4-yl)-2-oxoethylidene)amino)oxy)cyclopropanecarboxylic acid], the minimal inhibitory concentration (MIC) in the test with E. coli strain 25922 and in the test with E. coli containing KPC-2 was 0.25 µg/mL (≈ 0.39 µM) throughout.
Regarding `N=C(NCc1cnn(C[C@@H]2[C@H](NC(=O)/C(=N\OC3(C(=O)O)CC3)c3csc(N)n3)C(=O)N2S(=O)(=O)O)n1)N[C@H]1CCNC1` [Example 141, 1-(((Z)-(1-(2-aminothiazol-4-yl)-2-oxo-2-(((3S,4R)-2-oxo-4-((4-((3-((S)-pyrrolidin-3-yl)guanidino)methyl)-2H-1,2,3-triazol-2-yl)methyl)-1-sulfoazetidin-3-yl)amino)ethylidene)amino)oxy)cyclopropanecarboxylic acid], the MIC in the test with E. coli strain 25922 and in the test with E. coli containing KPC-2 was 0.5 µg/mL (≈ 0.78 µM) each time.
Consider `Cc1nn(C[C@@H]2[C@H](NC(=O)/C(=N\OC3(C(=O)O)CC3)c3csc(N)n3)C(=O)N2S(=O)(=O)O)nc1CN` [Example 143, 1-(((Z)-(2-(((2R,3S)-2-((4-(aminomethyl)-5-methyl-2H-1,2,3-triazol-2-yl)methyl)-4-oxo-1-sulfoazetidin-3-yl)amino)-1-(2-aminothiazol-4-yl)-2-oxoethylidene)amino)oxy)cyclopropanecarboxylic acid], for which the MIC in the test with E. coli strain 25922 is 0.5 µg/mL (≈ 0.92 µM); in the test on E. coli containing KPC-2 it was 0.25 µg/mL (≈ 0.46 µM).
Take `Cc1nn(C[C@@H]2[C@H](NC(=O)/C(=N\OC3(C(=O)O)CC3)c3csc(N)n3)C(=O)N2S(=O)(=O)O)nc1CNC(=N)NCCCN` [Example 144, 1-(((Z)-(2-(((2R,3S)-2-((4-((3-(3-aminopropyl)guanidino)methyl)-5-methyl-2H-1,2,3-triazol-2-yl)methyl)-4-oxo-1-sulfoazetidin-3-yl)amino)-1-(2-aminothiazol-4-yl)-2-oxoethylidene)amino)oxy)cyclopropanecarboxylic acid]: the MIC with E. coli strain 25922 and in the test on E. coli containing KPC-2 was 1 µg/mL (≈ 1.56 µM) each time.
`CC(NC(=N)NCCCN)c1cnn(C[C@@H]2[C@H](NC(=O)/C(=N\OC3(C(=O)O)CC3)c3csc(N)n3)C(=O)N2S(=O)(=O)O)n1` (stereo partly drawn) [Example 145, 1-(((Z)-(2-(((2R,3S)-2-((4-(1-(3-(3-aminopropyl)guanidino)ethyl)-2H-1,2,3-triazol-2-yl)methyl)-4-oxo-1-sulfoazetidin-3-yl)amino)-1-(2-aminothiazol-4-yl)-2-oxoethylidene)amino)oxy)cyclopropanecarboxylic acid]: the MIC in the test on E. coli strain 25922 and with E. coli containing KPC-2 was 0.5 µg/mL (≈ 0.778 µM) throughout.
For the compound `C[C@H](NCCCN)c1cnn(C[C@@H]2[C@H](NC(=O)/C(=N\OC3(C(=O)O)CC3)c3csc(N)n3)C(=O)N2S(=O)(=O)O)n1` [Example 146, 1-(((Z)-(2-(((2R,3S)-2-((4-((S)-1-((3-aminopropyl)amino)ethyl)-2H-1,2,3-triazol-2-yl)methyl)-4-oxo-1-sulfoazetidin-3-yl)amino)-1-(2-aminothiazol-4-yl)-2-oxoethylidene)amino)oxy)cyclopropanecarboxylic acid], the minimal inhibitory concentration (MIC) in the test on E. coli strain 25922 and in the test on E. coli containing KPC-2 was 0.5 µg/mL (≈ 0.832 µM) each time.
As for `N=C(NCCOCCN)NCc1cnn(C[C@@H]2[C@H](NC(=O)/C(=N\OC3(C(=O)O)CC3)c3csc(N)n3)C(=O)N2S(=O)(=O)O)n1` [Example 147, 1-(((Z)-(2-(((2R,3S)-2-((4-((3-(2-(2-aminoethoxy)ethyl)guanidino)methyl)-2H-1,2,3-triazol-2-yl)methyl)-4-oxo-1-sulfoazetidin-3-yl)amino)-1-(2-aminothiazol-4-yl)-2-oxoethylidene)amino)oxy)cyclopropanecarboxylic acid], the MIC in the test on E. coli strain 25922 and in the test on E. coli containing KPC-2 was 0.5 µg/mL (≈ 0.759 µM) each time.
`CN(Cc1cnn(C[C@@H]2[C@H](NC(=O)/C(=N\OC3(C(=O)O)CC3)c3csc(N)n3)C(=O)N2S(=O)(=O)O)n1)C(=N)NCCCN` [Example 148, 1-(((Z)-(2-(((2R,3S)-2-((4-((3-(3-aminopropyl)-1-methylguanidino)methyl)-2H-1,2,3-triazol-2-yl)methyl)-4-oxo-1-sulfoazetidin-3-yl)amino)-1-(2-aminothiazol-4-yl)-2-oxoethylidene)amino)oxy)cyclopropanecarboxylic acid]: the MIC in the test on E. coli strain 25922 and in the test on E. coli containing KPC-2 was 1 µg/mL (≈ 1.56 µM) in each case.
